The values that follow come from PubChem BioAssay (NCI).

Test systems include NCI-H460 lung; SK-OV-3 ovarian; MDA-MB-231 breast; SW-620 colon; NCI-H23 lung; SK-MEL-5 melanoma; SNB-19 CNS; OVCAR-8 ovarian; HCC-2998 colon; MOLT-4 leukemia.
Holding throughout (assay): NCI anticancer screen, dose series, 48 h

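Compound exposure: 48 hours, 5 concentrations, 96-well plates. The concentration for 50% growth inhibition is given as GI50. Definition used: TGI = concentration required for complete inhibition of growth.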

For the compound `CCCNNC(=O)/C=C/c1ccc(CNCCc2c(C)[nH]c3ccccc23)cc1`, the GI50 was 72.6 nM in the assay with NCI-H460 lung; 35.7 nM in the assay on SK-OV-3 ovarian; 70.8 nM in the assay with MDA-MB-231 breast; 17.7 nM with SW-620 colon; 54.5 nM in the assay on NCI-H23 lung; 44.7 nM in the assay with SK-MEL-5 melanoma. Besides, the GI50 in the assay with SNB-19 CNS is 76.8 nM; in the assay on OVCAR-8 ovarian, 14.9 nM; in the assay with HCC-2998 colon, 44.9 nM; with MOLT-4 leukemia, 15.2 nM. Besides, the TGI in the assay on NCI-H460 lung turned out to be 3570 nM; in the assay on SK-OV-3 ovarian it was 482 nM; in the assay on MDA-MB-231 breast, 3740 nM; with SW-620 colon, 237 nM; in the assay on NCI-H23 lung, 3500 nM; with SK-MEL-5 melanoma, 122 nM. Moreover, the TGI with SNB-19 CNS turned out to be 2100 nM; in the assay with OVCAR-8 ovarian, 3920 nM; with HCC-2998 colon it was 115 nM; with MOLT-4 leukemia it was 4090 nM.
